{
  "source": "patent US20140187513A1",
  "about": "“METHOD OF IMPROVING SKILLS WITH A COMPOSITION COMPRISING NON-DIGESTIBLE SACCHARIDE” (priority 2007, published 2014)",
  "origin": "cited, not measured here",
  "details": "oral, autistic children, pilot study",
  "data": [
    {"smiles": "CN[C@H](CC(C)C)C(=O)N[C@H]1C(=O)N[C@@H](CC(N)=O)C(=O)N[C@H]2C(=O)N[C@H]3C(=O)N[C@H](C(=O)N[C@H](C(=O)O)c4cc(O)cc(O)c4-c4cc3ccc4O)[C@H](O)c3ccc(c(Cl)c3)Oc3cc2cc(c3O[C@@H]2O[C@H](CO)[C@@H](O)[C@H](O)[C@H]2O[C@H]2C[C@](C)(N)[C@H](O)[C@H](C)O2)Oc2ccc(cc2Cl)[C@H]1O", "note": "[vancomycin]", "values": [
      {"measurement": "cognitive effect following vancomycin treatment", "value": "significant cognitive improvement"}
    ]}
  ]
}
